Among the data in patent publication USRE37781E1, “Substituted cyclic carbonyls and derivatives thereof useful as retroviral protease inhibitors” (DuPont Pharmaceuticals Company, priority 1991, dated 2002) are Ki, IC90 and melting point values, retold here.

Structures are written as SMILES. Values after ≈ are worked out from the molar mass of the structure shown.

One data set has as its target single-chain tethered dimer of HIV protease (Human immunodeficiency virus 1, UniProt P04585). The data set can be described thus: biochemical. Type of data set: biochemical.
Details: not given
For the compound `O=C1N(Cc2ccc(OCc3ccccc3)cc2)C(Cc2ccccc2)C(O)C(O)C(Cc2ccccc2)N1Cc1ccc(OCc2ccccc2)cc1` (stereo not drawn) [Example 5P], the Ki is above 1000 nM.

`O=C1N(Cc2ccc(F)cc2)C(Cc2ccccc2)C(O)C(O)C(Cc2ccccc2)N1Cc1ccc2ccccc2c1` (stereo not drawn) [Example 5Q] gave an inhibition constant Ki below 10 nM.

Regarding `O=C1N(Cc2ccc(O)cc2)C(Cc2ccccc2)C(O)C(O)C(Cc2ccccc2)N1Cc1ccc(O)cc1` (stereo not drawn) [Example 5R], the inhibition constant Ki was below 10 nM.

`O=C1N(Cc2cccc(CO)c2)C(Cc2ccccc2)C(O)C(O)C(Cc2ccccc2)N1Cc1cccc(CO)c1` (stereo not drawn) [Example 5S] returned an inhibition constant Ki below 10 nM.

With `O=Cc1cccc(CN2C(=O)N(Cc3cccc(C=O)c3)C(Cc3ccccc3)C(O)C(O)C2Cc2ccccc2)c1` (stereo not drawn) [Example 5V], the Ki was below 10 nM.

On to `N#Cc1ccc(CN2C(=O)N(Cc3ccc(C#N)cc3)C(Cc3ccccc3)C(O)C(O)C2Cc2ccccc2)cc1` (stereo not drawn) [Example 5W], for which the inhibition constant (Ki) was below 10 nM.

In the case of `O=Cc1ccc(CN2C(=O)N(Cc3ccc(C=O)cc3)C(Cc3ccccc3)C(O)C(O)C2Cc2ccccc2)cc1` (stereo not drawn) [Example 5X], the inhibition constant (Ki) is below 10 nM.

Compound `CC(C)N1C(=O)N(Cc2cccc(O)c2)C(Cc2ccccc2)C(O)C(O)C1Cc1ccccc1` (stereo not drawn) [Example 5Z] gave an inhibition constant Ki below 10 nM.

`O=C1N(Cc2cccc(C=NO)c2)C(Cc2ccccc2)C(O)C(O)C(Cc2ccccc2)N1Cc1cccc(C=NO)c1` (stereo not drawn) [Example 6C] gave an inhibitory constant (Ki) below 10 nM.

Take `O=C1N(Cc2cccc(Cl)c2)C(Cc2ccccc2)C(O)C(O)C(Cc2ccccc2)N1Cc1cccc(Cl)c1` (stereo not drawn) [Example 6X]: the inhibitory constant (Ki) is below 10 nM.

`O=C1N(Cc2cc(F)cc(F)c2)C(Cc2ccccc2)C(O)C(O)C(Cc2ccccc2)N1Cc1cc(F)cc(F)c1` (stereo not drawn) [Example 6ZC] showed an inhibition constant (Ki) of 10 to 1000 nM.

The compound `O=C1N(Cc2cccc(Br)c2)C(Cc2ccccc2)C(O)C(O)C(Cc2ccccc2)N1Cc1cccc(Br)c1` (stereo not drawn) [Example 6ZE] registered an inhibition constant (Ki) below 10 nM.

The compound `O=C1NC(Cc2ccccc2)C(O)C(O)C(Cc2ccccc2)N1Cc1ccc(F)cc1` (stereo not drawn) [Example 6ZF] had an inhibitory constant (Ki) below 10 nM.

Take `O=C1N(Cc2cc(Cl)cc(Cl)c2)C(Cc2ccccc2)C(O)C(O)C(Cc2ccccc2)N1Cc1cc(Cl)cc(Cl)c1` (stereo not drawn) [Example 6ZJ]: the inhibition constant (Ki) is 10 to 1000 nM.

As for `O=C1N(Cc2cccc([N+](=O)[O-])c2)C(Cc2ccccc2)C(O)C(O)C(Cc2ccccc2)N1Cc1cccc([N+](=O)[O-])c1` (stereo not drawn) [Example 6Z], the Ki is below 10 nM.

Another data set deals with HIV-1 (RF) in MT-2 cells. In words: microbe, parasite or virus in culture. In kind it is cell-based. The conditions noted are these: Human immunodeficiency virus 1, MT2. The method, boiled down:
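HIV-1 laboratory strains (RF, MN, IIIB) grown in H9 cells in RPMI 1640 with 5% FCS; infections in MT-2 cells. Viral RNA quantified by hybridization with biotinylated gag/pol capture probes on streptavidin plates and alkaline phosphatase-conjugated reporter probes; BH10 gag-pol in vitro transcripts serve as RNA standards.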
`O=C1N(Cc2cccc([N+](=O)[O-])c2)C(Cc2ccccc2)C(O)C(O)C(Cc2ccccc2)N1Cc1cccc([N+](=O)[O-])c1` (stereo not drawn) [Example 6Z] came in with an IC90 below 10 µg/mL.

The same data set, now with this note: Human immunodeficiency virus 1, MT2, HIV RNA assay, HIV-1 infected MT-2 cells; class symbols; read-out: IC90.
On to `O=C1N(Cc2ccc(OCc3ccccc3)cc2)C(Cc2ccccc2)C(O)C(O)C(Cc2ccccc2)N1Cc1ccc(OCc2ccccc2)cc1` (stereo not drawn) [Example 5P], for which the IC90 is above 100 µg/mL.

On to `O=C1N(Cc2ccc(F)cc2)C(Cc2ccccc2)C(O)C(O)C(Cc2ccccc2)N1Cc1ccc2ccccc2c1` (stereo not drawn) [Example 5Q], for which the 90% effect concentration (IC90) was below 10 µg/mL.

In the case of `O=C1N(Cc2ccc(O)cc2)C(Cc2ccccc2)C(O)C(O)C(Cc2ccccc2)N1Cc1ccc(O)cc1` (stereo not drawn) [Example 5R], the IC90 is below 10 µg/mL.

For the compound `O=C1N(Cc2cccc(CO)c2)C(Cc2ccccc2)C(O)C(O)C(Cc2ccccc2)N1Cc1cccc(CO)c1` (stereo not drawn) [Example 5S], the IC90 was below 10 µg/mL.

`O=Cc1cccc(CN2C(=O)N(Cc3cccc(C=O)c3)C(Cc3ccccc3)C(O)C(O)C2Cc2ccccc2)c1` (stereo not drawn) [Example 5V]: the IC90 was below 10 µg/mL.

For `N#Cc1ccc(CN2C(=O)N(Cc3ccc(C#N)cc3)C(Cc3ccccc3)C(O)C(O)C2Cc2ccccc2)cc1` (stereo not drawn) [Example 5W], the IC90 was below 10 µg/mL.

For `O=Cc1ccc(CN2C(=O)N(Cc3ccc(C=O)cc3)C(Cc3ccccc3)C(O)C(O)C2Cc2ccccc2)cc1` (stereo not drawn) [Example 5X], the IC90 is below 10 µg/mL.

Consider `CC(C)N1C(=O)N(Cc2cccc(O)c2)C(Cc2ccccc2)C(O)C(O)C1Cc1ccccc1` (stereo not drawn) [Example 5Z], for which the 90% effect concentration (IC90) was below 10 µg/mL.

As to `O=C1N(Cc2cccc(C=NO)c2)C(Cc2ccccc2)C(O)C(O)C(Cc2ccccc2)N1Cc1cccc(C=NO)c1` (stereo not drawn) [Example 6C], the IC90 was below 10 µg/mL.

As to `O=C1N(Cc2cccc(Cl)c2)C(Cc2ccccc2)C(O)C(O)C(Cc2ccccc2)N1Cc1cccc(Cl)c1` (stereo not drawn) [Example 6X], the 90% effect concentration (IC90) was below 10 µg/mL.

`O=C1N(Cc2cc(F)cc(F)c2)C(Cc2ccccc2)C(O)C(O)C(Cc2ccccc2)N1Cc1cc(F)cc(F)c1` (stereo not drawn) [Example 6ZC]: the IC90 fell in the range of 10 to 100 µg/mL (≈ 17.3 to 173 µM).

Turning to `O=C1N(Cc2cccc(Br)c2)C(Cc2ccccc2)C(O)C(O)C(Cc2ccccc2)N1Cc1cccc(Br)c1` (stereo not drawn) [Example 6ZE], the 90% effect concentration (IC90) was below 10 µg/mL.

As for `O=C1NC(Cc2ccccc2)C(O)C(O)C(Cc2ccccc2)N1Cc1ccc(F)cc1` (stereo not drawn) [Example 6ZF], the IC90 is below 10 µg/mL.

For `O=C1N(Cc2cc(Cl)cc(Cl)c2)C(Cc2ccccc2)C(O)C(O)C(Cc2ccccc2)N1Cc1cc(Cl)cc(Cl)c1` (stereo not drawn) [Example 6ZJ], the IC90 was 10 to 100 µg/mL (≈ 15.5 to 155 µM).

System in a further data set: not given
Experiment: not given
Details: not given
`O=C1N(Cc2ccc(OCc3ccccc3)cc2)C(Cc2ccccc2)C(O)C(O)C(Cc2ccccc2)N1Cc1ccc(OCc2ccccc2)cc1` (stereo not drawn) [Example 5P] came in with a melting point of 80 to 81 °C.

In the case of `O=C1N(Cc2ccc(F)cc2)C(Cc2ccccc2)C(O)C(O)C(Cc2ccccc2)N1Cc1ccc2ccccc2c1` (stereo not drawn) [Example 5Q], the melting point lay within 105 to 107 °C.

On to `O=C1N(Cc2ccc(O)cc2)C(Cc2ccccc2)C(O)C(O)C(Cc2ccccc2)N1Cc1ccc(O)cc1` (stereo not drawn) [Example 5R], for which the melting point fell in the range of 115 to 117 °C.

`O=C1N(Cc2cccc(CO)c2)C(Cc2ccccc2)C(O)C(O)C(Cc2ccccc2)N1Cc1cccc(CO)c1` (stereo not drawn) [Example 5S] displayed a melting point of 94 to 95 °C.

Regarding `O=Cc1cccc(CN2C(=O)N(Cc3cccc(C=O)c3)C(Cc3ccccc3)C(O)C(O)C2Cc2ccccc2)c1` (stereo not drawn) [Example 5V], the melting point is 175 to 176 °C.

`N#Cc1ccc(CN2C(=O)N(Cc3ccc(C#N)cc3)C(Cc3ccccc3)C(O)C(O)C2Cc2ccccc2)cc1` (stereo not drawn) [Example 5W] returned a melting point of 140 to 143 °C.

The compound `O=Cc1ccc(CN2C(=O)N(Cc3ccc(C=O)cc3)C(Cc3ccccc3)C(O)C(O)C2Cc2ccccc2)cc1` (stereo not drawn) [Example 5X] had a melting point of 90 to 91 °C.

Consider `CC(C)N1C(=O)N(Cc2cccc(O)c2)C(Cc2ccccc2)C(O)C(O)C1Cc1ccccc1` (stereo not drawn) [Example 5Z], for which the melting point lay in the range of 212 to 213 °C.

For the compound `O=C1N(Cc2cccc(C=NO)c2)C(Cc2ccccc2)C(O)C(O)C(Cc2ccccc2)N1Cc1cccc(C=NO)c1` (stereo not drawn) [Example 6C], the melting point lay within 185 to 189 °C.

Compound `O=C1N(Cc2cccc(Cl)c2)C(Cc2ccccc2)C(O)C(O)C(Cc2ccccc2)N1Cc1cccc(Cl)c1` (stereo not drawn) [Example 6X] registered a melting point of 210.3 °C.

The compound `O=C1N(Cc2cc(F)cc(F)c2)C(Cc2ccccc2)C(O)C(O)C(Cc2ccccc2)N1Cc1cc(F)cc(F)c1` (stereo not drawn) [Example 6ZC] came in with a melting point of 167.9 °C.

Consider `O=C1N(Cc2cccc(Br)c2)C(Cc2ccccc2)C(O)C(O)C(Cc2ccccc2)N1Cc1cccc(Br)c1` (stereo not drawn) [Example 6ZE], for which the melting point came out at 210.7 °C.

Compound `O=C1NC(Cc2ccccc2)C(O)C(O)C(Cc2ccccc2)N1Cc1ccc(F)cc1` (stereo not drawn) [Example 6ZF] came in with a melting point of 188.9 °C.

Regarding `O=C1N(Cc2cc(Cl)cc(Cl)c2)C(Cc2ccccc2)C(O)C(O)C(Cc2ccccc2)N1Cc1cc(Cl)cc(Cl)c1` (stereo not drawn) [Example 6ZJ], the melting point was determined as 231.1 °C.

In turn, `O=C1N(Cc2cccc([N+](=O)[O-])c2)C(Cc2ccccc2)C(O)C(O)C(Cc2ccccc2)N1Cc1cccc([N+](=O)[O-])c1` (stereo not drawn) [Example 6Z] came in with a melting point of 248.3 °C.
